Measurements published in US20250145633A1, “SUBSTITUTED FURANOPYRIMIDINE COMPOUNDS AS PDE1 INHIBITORS” (Dart NeuroScience, LLC, priority 2017, published 2025).

biological target: human PDE1B enzyme (Homo sapiens (Human), UniProt Q01064); assay: IMAP TR-FRET PDE1B enzymatic assay; format: biochemical; conditions: negative log of half-maximal molar inhibitory concentration; 200 nM FAM-cAMP; values given as bins
Summary of the method: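 Full-length GST-tagged human PDE1B (250 pg/well) in IMAP BSA buffer with 10 U/ml calmodulin and 2.5 mM CaCl2; compound pre-incubated 5 min at room temperature, then 200 nM (final) FAM-cAMP for 30 min. IMAP binding reagent/Tb added, 1 h; TR-FRET 520/490 ratio read. IC50 from sigmoidal dose-response fit.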

SMILES	PDE1b (pIC50)
Cc1nc(C2CCN(C(=O)c3c(C)oc4ncnc(NC5(C)CC5)c34)C2)ncc1F (stereo not shown) [Example 800, 5-[3-(5-Fluoro-4-methylpyrimidin-2-yl)pyrrolidine-1-carbonyl]-6-methyl-N-(1-methylcyclopropyl)furo[2,3-d]pyrimidin-4-amine]	>8
Cc1cnc(C2CCN(C(=O)c3c(C)oc4ncnc(NC5(C)CC5)c34)CC2)nc1 [Example 360, 6-Methyl-N-(1-methylcyclopropyl)-5-[4-(5-methylpyrimidin-2-yl)piperidine-1-carbonyl]furo[2,3-d]pyrimidin-4-amine]	>8
COc1cc(CNC(=O)c2c(C)oc3ncnc(NC4(C)CC4)c23)nc(C)n1 [Example 667, N-[(6-Methoxy-2-methylpyrimidin-4-yl)methyl]-6-methyl-4-[(1-methylcyclopropyl)amino]furo[2,3-d]pyrimidine-5-carboxamide]	>8
CCC(NC(=O)c1c(C)oc2ncnc(NC3(C)CC3)c12)c1ccc(OC)cc1 (stereo not shown) [Example 475, N-[1-(4-Methoxyphenyl)propyl]-6-methyl-4-[(1-methylcyclopropyl)amino]furo[2,3-d]pyrimidine-5-carboxamide]	>8

same assay, conditions: negative log of half-maximal molar inhibitory concentration; 200 nM FAM-cAMP; values given as bins; read-out: PDE1b (pIC50) (converted)

SMILES	IC50 [nM]
Cc1oc2ncnc(NC3(C)CC3)c2c1C(=O)N1CCC(Cc2ccc(F)cc2)C1 (stereo not shown) [Example 414, 5-{3-[(4-Fluorophenyl)methyl]pyrrolidine-1-carbonyl}-6-methyl-N-(1-methylcyclopropyl)furo[2,3-d]pyrimidin-4-amine]	10 to 100
Cc1oc2ncnc(NC3(C)CC3)c2c1C(=O)N1CCN(c2ncc(F)cn2)CC1C (stereo not shown) [Example 357, 5-[4-(5-Fluoropyrimidin-2-yl)-2-methylpiperazine-1-carbonyl]-6-methyl-N-(1-methylcyclopropyl)furo[2,3-d]pyrimidin-4-amine]	10 to 100
CCOc1ccc(C(C)NC(=O)c2c(C)oc3ncnc(NC4(C)CC4)c23)cc1F (stereo not shown) [Example 595, N-[1-(4-Ethoxy-3-fluorophenyl)ethyl]-6-methyl-4-[(1-methylcyclopropyl)amino]furo[2,3-d]pyrimidine-5-carboxamide]	10 to 100
Cc1oc2ncnc(NC3(C)CC3)c2c1C(=O)N1CCc2ncccc2C1 [Example 631, 6-Methyl-N-(1-methylcyclopropyl)-5-(5,6,7,8-tetrahydro-1,6-naphthyridine-6-carbonyl)furo[2,3-d]pyrimidin-4-amine]	100 to 1000
Cc1oc2ncnc(NC3(C)CC3)c2c1C(=O)NCCN1CCOCC1 [Example 96, 6-Methyl-4-[(1-methylcyclopropyl)amino]-N-[2-(morpholin-4-yl)ethyl]furo[2,3-d]pyrimidine-5-carboxamide]	10 to 100
Cc1oc2ncnc(NC3(C)CC3)c2c1C(=O)N(C)Cc1ccc(F)cc1 [Example 248, N-[(4-Fluorophenyl)methyl]-N,6-dimethyl-4-[(1-methylcyclopropyl)amino]furo[2,3-d]pyrimidine-5-carboxamide]	10 to 100
Cc1nccc(CNC(=O)c2c(C)oc3ncnc(NC4(C)CC4)c23)n1 [Example 625, 6-Methyl-4-[(1-methylcyclopropyl)amino]-N-[(2-methylpyrimidin-4-yl)methyl]furo[2,3-d]pyrimidine-5-carboxamide]	10 to 100
Cc1oc2ncnc(NC3(C)CC3)c2c1C(=O)N1CCN(c2nc(Cl)c(Cl)c(Cl)c2Cl)CC1 [Example 308, 6-Methyl-N-(1-methylcyclopropyl)-5-[4-(tetrachloropyridin-2-yl)piperazine-1-carbonyl]furo[2,3-d]pyrimidin-4-amine]	10 to 100
Cc1oc2ncnc(NC3(C)CC3)c2c1C(=O)NC1CCCC1 [Example 165, N-Cyclopentyl-6-methyl-4-[(1-methylcyclopropyl)amino]furo[2,3-d]pyrimidine-5-carboxamide]	10 to 100
Cc1oc2ncnc(NC3(C)CC3)c2c1C(=O)NC1(CO)CCC1 [Example 353, N-[1-(Hydroxymethyl)cyclobutyl]-6-methyl-4-[(1-methylcyclopropyl)amino]furo[2,3-d]pyrimidine-5-carboxamide]	10 to 100
Cc1oc2ncnc(NC3(C)CC3)c2c1C(=O)NC(C)(C)c1ccccc1 [Example 239, 6-Methyl-4-[(1-methylcyclopropyl)amino]-N-(2-phenylpropan-2-yl)furo[2,3-d]pyrimidine-5-carboxamide]	10 to 100
Cc1csc(CN(C)C(=O)c2c(C)oc3ncnc(NC4(C)CC4)c23)n1 [Example 700, N,6-Dimethyl-N-[(4-methyl-1,3-thiazol-2-yl)methyl]-4-[(1-methylcyclopropyl)amino]furo[2,3-d]pyrimidine-5-carboxamide]	10 to 100
Cc1oc2ncnc(NC3(C)CC3)c2c1C(=O)N1CCc2nc(Cl)ncc2C1 [Example 289, 5-{2-Chloro-5H,6H,7H,8H-pyrido[4,3-d]pyrimidine-6-carbonyl}-6-methyl-N-(1-methylcyclopropyl)furo[2,3-d]pyrimidin-4-amine]	10 to 100
Cc1oc2ncnc(NC3(C)CC3)c2c1C(=O)N1C[C@@H]2[C@H](C1)[C@H]2c1ccc(C(F)(F)F)cn1 [Example 65, 6-Methyl-N-(1-methylcyclopropyl)-5-[(1R,5S,6S)-6-[5-(trifluoromethyl)pyridin-2-yl]-3-azabicyclo[3.1.0]hexane-3-carbonyl]furo[2,3-d]pyrimidin-4-amine]	100 to 1000
COc1ccc(CCNC(=O)c2c(C)oc3ncnc(NC4(C)CC4)c23)cc1 [Example 619, N-[2-(4-Methoxyphenyl)ethyl]-6-methyl-4-[(1-methylcyclopropyl)amino]furo[2,3-d]pyrimidine-5-carboxamide]	10 to 100
Cc1nc(NC(=O)c2c(C)oc3ncnc(NC4(C)CC4)c23)oc1C [Example 442, N-(Dimethyl-1,3-oxazol-2-yl)-6-methyl-4-[(1-methylcyclopropyl)amino]furo[2,3-d]pyrimidine-5-carboxamide]	10 to 100
Cc1nc(CNC(=O)c2c(C)oc3ncnc(NC4(C)CC4)c23)cs1 [Example 97, 6-M ethyl-N-[(2-methyl-1,3-thiazol-4-yl)methyl]-4-[(1-methylcyclopropyl)amino]furo[2,3-d]pyrimidine-5-carboxamide]	10 to 100
Cc1oc2ncnc(NC3(C)CC3)c2c1C(=O)N1CCc2cnc(C3CC3)nc2C1 [Example 299, 5-{2-Cyclopropyl-5H,6H,7H,8H-pyrido[3,4-d]pyrimidine-7-carbonyl}-6-methyl-N-(1-methylcyclopropyl)furo[2,3-d]pyrimidin-4-amine]	10 to 100
Cc1oc2ncnc(NC3(C)CC3)c2c1C(=O)N1CC2CC(C1)c1ccccc12 [Example 403, 5-{10-Azatricyclo[6.3.1.0^2,7]dodeca-2,4,6-triene-10-carbonyl}-6-methyl-N-(1-methylcyclopropyl)furo[2,3-d]pyrimidin-4-amine]	100 to 1000
Cc1nn(C(=O)c2c(C)oc3ncnc(NC4(C)CC4)c23)c(C)c1C [Example 409, 6-Methyl-N-(1-methylcyclopropyl)-5-(trimethyl-1H-pyrazole-1-carbonyl)furo[2,3-d]pyrimidin-4-amine]	10 to 100
COc1ccc(CNC(=O)c2c(C)oc3ncnc(NC4(C)CC4)c23)c(Cl)c1 [Example 551, N-[(2-Chloro-4-methoxyphenyl)methyl]-6-methyl-4-[(1-methylcyclopropyl)amino]furo[2,3-d]pyrimidine-5-carboxamide]	10 to 100
